We go through 3 compounds from US8791064B2, “Beta-lactoglobulin-polysaccharide nanoparticles for hydrophobic bioactive compounds” (Technion Research and Development Foundation Ltd., priority 2008, dated 2014).

Data set [1] is described as follows: Partition of vitamin D2 between nanocomplex pellet and serum (ultracentrifugation, RP-HPLC). It is filed as physicochemical. The procedure:
To evaluate the encapsulation of the vitamin within the nanoparticles, the partition of the vitamin between the particles and the serum was studied. For this purpose, an ultra centrifuge (15,000×g) was used to separate the nanocomplexes (pellet) from the serum (supernatant), and the concentration of vitamin D2 in the pellet was compared to that in the serum. Vitamin content of particles and serum was analyzed by solvent extraction followed by reversed phase HPLC, according to the method described in Semo et al., 2007, Food Hydrocolloids 21:936. […] Therefore, vitamin concentration in the nanoparticle pellet was 55 times higher than vitamin concentration in the serum, and 5.7 times higher than the initial concentration of the vitamin in the dispersion (13.5 μg mL^−1).

Data set [2] is described as follows: Vitamin D2 accelerated shelf-life stress test at 30° C. It is filed as physicochemical. The note with it: pH 4.25, 30° C., 125 hours. The method, then: FIG. 7: Effect of encapsulation on stability of vitamin D during an accelerated shelf-life stress test at pH 4.25: samples were stored at 30° C. in closed vials containing 10 mL of solution and 10 mL of air, for a period of 125 hours: (▪) VD2-loaded β-lactoglobulin) (▴) complexes of VD2-β-lactoglobulin-pectin (pH 4.25). (♦) control of unprotected VD2 in water.

For data set [3] the following is noted: cited from earlier work; for pI of β-lactoglobulin: literature value (Jameson et al., 2002).
A short description of data set [4]: Electrophoretic mobility / zeta potential. The data set is classed as physicochemical. An excerpt: Four criteria were used in order to evaluate the β-lactoglobulin-polysaccharide nanocomplexes and find the conditions (pH and ratio) which yield transparent suspensions containing small and stable nanoparticles: Sedimentation—Qualitative observation of the solutions in glass vials, following overnight equilibration at room temperature; Turbidity—Measured by an Ultrospec 3000 spectrophotometer (GE Healthcare, Life Sciences, UK), at 600 nm using 1 cm path cuvettes: Samples were vortexed prior to analysis; Electrophoretic mobility (EM or μe)—Measured using a zeta potential/particle size analyzer NICOMP™ 380 (Particle Sizing Systems Ltd. Santa Barbara, Calif., Agilent Technologies Inc., USA). The EM was measured under a 3 V/cm e-field at 25° C.; and Particle size—measured by Dynamic Light Scattering using the NICOMP™380 at 23° C. using 0.933 cp for the viscosity of the medium.
The stability of these colloidal systems was studied by measuring the electrophoretic mobility (EM) of the colloidal particles (FIGS. 12 and 13). Because the ionic strength of the studied systems was very low, and the particles are both very small and “soft” (being aggregates of oppositely charged polymers), the precise calculation of zeta potential from EM is not possible, due to the complexity of the system, and the limitations of currently available theoretical models. […]

Values joined by “and” are separate entries in the source; they are usually repeats but may differ in a detail not shown here. Equal values may be shown once. Read-outs that look alike come from different tables or passages of the source.

Consider `C=C1CC[C@H](O)C/C1=C/C=C1\CCC[C@]2(C)[C@@H]([C@H](C)/C=C/[C@H](C)C(C)C)CC[C@@H]12` [Vitamin D2, ergocalciferol], for which the “vitamin concentration in the nanoparticle pellet relative to the initial concentration in the dispersion” value in data set [1] (initial concentration 13.5 μg mL^−1) is 5.7 times higher. Further, in data set [1] (β-lactoglobulin-pectin nanocomplex dispersion centrifuged at 15,000×g), the “Vitamin D2 concentration in the supernatant (serum)” value was determined as 1.4 µg/mL. Moreover, in data set [1] (β-lactoglobulin-pectin nanocomplexes), the “vitamin concentration in the nanoparticle pellet relative to the serum” value came to 55 times higher. In addition, the “Vitamin D2 concentration in the pellet” value in data set [1] (β-lactoglobulin-pectin nanocomplexes separated at 15,000×g, initial concentration 13.5 μg mL^−1) was determined as 77.26 µg/mL. For the same compound, the “degradation of the vitamin (ranking)” value is on record as “fastest degradation rate” in data set [2] (unprotected control, vitamin D dispersion in water) and “slowest degradation” in data set [2] (vitamin D2 in β-lactoglobulin-pectin nanocomplexes, closed vials with 10 mL air).

`CC/C=C\C/C=C\C/C=C\C/C=C\C/C=C\C/C=C\CCC(=O)O` [DHA, docosahexaenoic acid]: in data set [3] (Namani et al., 2007), the “pKa of DHA” value is “≈ 8.5”.

On to “β-lactoglobulin: bovine β-lactoglobulin isolate (Davisco), major whey protein, 18.4 kDa”, for which the “isoelectric point from electrophoretic mobility versus pH” value in data set [4] (0.05% β-lactoglobulin alone, 25° C., low ionic strength (FIG. 13)) was determined as 5.2. The zeta potential entry in data set [4] (pure β-lactoglobulin 0.05% wt, no pectin, pH 3.5 to 4.5) is reported as “+6 mV”. Moreover, the “pI of β-lactoglobulin” value in data set [3] was 5.18 and 5.1; in data set [3] (listed as lactoglobulin), 5.18.
